Measured values reported in ChEMBL document CHEMBL3351520, “Discovery of lesser known flavones as inhibitors of NF-κB signaling in MDA-MB-231 breast cancer cells--A SAR study” (Bioorg Med Chem Lett, 2014).
The source made the active and inactive calls. No cut-off for these calls is given here.

Legend:
[1] = target: T1, Nuclear factor NF-kappa-B complex (Homo sapiens) (UniProt Q00653+P19838+Q04206); experiment: Inhibition of non-stimulated NF-kappaB signaling (unknown origin) expressed in MDA-MB-231 cells at 5 uM incubated for 16 hrs by luciferase reporter gene assay; type: cell-based
T1 sequence (P19838 whole entry, looked up): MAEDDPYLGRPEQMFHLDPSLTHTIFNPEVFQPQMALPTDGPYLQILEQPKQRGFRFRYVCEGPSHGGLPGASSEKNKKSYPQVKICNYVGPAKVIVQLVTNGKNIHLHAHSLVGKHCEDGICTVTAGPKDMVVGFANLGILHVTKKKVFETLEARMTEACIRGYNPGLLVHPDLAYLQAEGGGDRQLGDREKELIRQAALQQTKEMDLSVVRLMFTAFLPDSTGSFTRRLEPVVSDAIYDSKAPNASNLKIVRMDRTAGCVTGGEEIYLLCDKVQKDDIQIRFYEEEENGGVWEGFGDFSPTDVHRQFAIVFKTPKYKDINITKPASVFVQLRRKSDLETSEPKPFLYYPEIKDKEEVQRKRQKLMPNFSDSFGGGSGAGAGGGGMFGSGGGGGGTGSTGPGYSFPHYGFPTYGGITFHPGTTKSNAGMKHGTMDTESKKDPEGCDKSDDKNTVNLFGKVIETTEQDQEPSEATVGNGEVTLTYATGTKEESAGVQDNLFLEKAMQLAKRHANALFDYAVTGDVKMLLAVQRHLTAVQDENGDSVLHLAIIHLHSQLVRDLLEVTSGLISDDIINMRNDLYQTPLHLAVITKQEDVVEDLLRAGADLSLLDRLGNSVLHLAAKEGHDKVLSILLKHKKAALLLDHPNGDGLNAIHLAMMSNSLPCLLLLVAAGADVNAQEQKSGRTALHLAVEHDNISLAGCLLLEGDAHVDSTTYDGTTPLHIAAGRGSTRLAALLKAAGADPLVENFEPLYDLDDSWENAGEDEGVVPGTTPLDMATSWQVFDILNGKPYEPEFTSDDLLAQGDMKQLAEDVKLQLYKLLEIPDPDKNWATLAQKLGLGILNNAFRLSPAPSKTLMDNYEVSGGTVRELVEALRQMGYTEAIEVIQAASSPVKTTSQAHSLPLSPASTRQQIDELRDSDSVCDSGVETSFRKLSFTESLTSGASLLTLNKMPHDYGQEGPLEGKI
T1 sequence (Q00653 whole entry, looked up): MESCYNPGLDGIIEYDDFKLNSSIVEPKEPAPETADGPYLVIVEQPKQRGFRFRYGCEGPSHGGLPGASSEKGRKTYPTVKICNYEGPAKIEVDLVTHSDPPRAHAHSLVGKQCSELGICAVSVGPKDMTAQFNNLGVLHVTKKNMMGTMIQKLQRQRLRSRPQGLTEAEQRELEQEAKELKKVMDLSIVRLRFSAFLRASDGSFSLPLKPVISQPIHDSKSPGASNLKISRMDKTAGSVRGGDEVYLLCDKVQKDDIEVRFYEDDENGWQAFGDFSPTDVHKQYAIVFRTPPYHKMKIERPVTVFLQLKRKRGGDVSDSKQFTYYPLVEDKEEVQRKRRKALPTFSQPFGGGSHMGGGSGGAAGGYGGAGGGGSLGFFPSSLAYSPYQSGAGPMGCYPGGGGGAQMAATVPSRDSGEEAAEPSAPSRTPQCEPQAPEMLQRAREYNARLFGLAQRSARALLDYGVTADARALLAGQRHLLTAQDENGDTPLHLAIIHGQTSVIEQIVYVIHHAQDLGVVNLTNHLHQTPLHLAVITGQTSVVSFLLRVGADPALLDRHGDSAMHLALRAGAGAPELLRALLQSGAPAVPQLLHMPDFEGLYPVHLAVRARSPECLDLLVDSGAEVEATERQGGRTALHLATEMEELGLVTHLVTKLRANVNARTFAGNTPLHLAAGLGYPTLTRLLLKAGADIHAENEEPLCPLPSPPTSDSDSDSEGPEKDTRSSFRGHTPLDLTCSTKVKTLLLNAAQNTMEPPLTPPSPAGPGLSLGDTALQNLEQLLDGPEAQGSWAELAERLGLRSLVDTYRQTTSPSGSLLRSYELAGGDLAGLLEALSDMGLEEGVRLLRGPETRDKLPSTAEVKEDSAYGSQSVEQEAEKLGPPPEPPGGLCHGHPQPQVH
T1 sequence (Q04206 whole entry, looked up): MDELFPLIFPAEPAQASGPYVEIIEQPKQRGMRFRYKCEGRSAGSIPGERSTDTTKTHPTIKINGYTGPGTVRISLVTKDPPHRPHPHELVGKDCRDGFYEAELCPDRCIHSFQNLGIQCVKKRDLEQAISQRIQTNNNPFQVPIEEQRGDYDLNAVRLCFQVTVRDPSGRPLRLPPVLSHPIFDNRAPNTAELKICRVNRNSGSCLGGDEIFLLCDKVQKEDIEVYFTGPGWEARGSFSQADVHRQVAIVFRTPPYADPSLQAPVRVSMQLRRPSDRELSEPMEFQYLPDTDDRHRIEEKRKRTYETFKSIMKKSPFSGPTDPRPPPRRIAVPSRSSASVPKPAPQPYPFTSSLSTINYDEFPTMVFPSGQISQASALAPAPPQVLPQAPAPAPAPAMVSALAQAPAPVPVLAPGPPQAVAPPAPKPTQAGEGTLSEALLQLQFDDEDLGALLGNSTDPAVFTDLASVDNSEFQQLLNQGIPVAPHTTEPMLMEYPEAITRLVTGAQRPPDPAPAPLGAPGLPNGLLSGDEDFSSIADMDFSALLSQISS

[2] = target: T1, Nuclear factor NF-kappa-B complex (Homo sapiens); experiment: Inhibition of doxorubicin-stimulated NF-kappaB signaling (unknown origin) expressed in MDA-MB-231 cells at 5 uM incubated for 16 hrs by luciferase reporter gene assay; type: cell-based
[3] = target: T1, Nuclear factor NF-kappa-B complex (Homo sapiens); experiment: Inhibition of NF-kappaB signaling in human MDA-MB-231 cells assessed as reduction in PMA-stimulated MMP9 mRNA expression at 5 uM pre-incubated for 8 hrs before PMA stimulation for 4 hrs by quantitative RT-PCR method; type: cell-based
[4] = target: T1, Nuclear factor NF-kappa-B complex (Homo sapiens); experiment: Inhibition of NF-kappaB signaling in human MDA-MB-231 cells assessed as reduction in PMA-stimulated COX2 mRNA expression at 5 uM pre-incubated for 8 hrs before PMA stimulation for 4 hrs by quantitative RT-PCR method; type: cell-based
[5] = target: T1, Nuclear factor NF-kappa-B complex (Homo sapiens); experiment: Inhibition of basal NF-kappaB signaling in human MDA-MB-231 cells assessed as reduction in MMP9 mRNA expression at 25 uM by quantitative RT-PCR method relative to untreated control; type: cell-based
[6] = target: T1, Nuclear factor NF-kappa-B complex (Homo sapiens); experiment: Inhibition of NF-kappaB signaling in human MDA-MB-231 cells assessed as reduction in PMA-stimulated MMP9 mRNA expression at 25 uM pre-incubated before PMA stimulation by quantitative RT-PCR method relative to untreated control; type: cell-based
[7] = target: T1, Nuclear factor NF-kappa-B complex (Homo sapiens); experiment: Inhibition of basal NF-kappaB signaling in human MDA-MB-231 cells assessed as reduction in COX2 mRNA expression at 25 uM by quantitative RT-PCR method relative to untreated control; type: cell-based
[8] = target: T1, Nuclear factor NF-kappa-B complex (Homo sapiens); experiment: Inhibition of NF-kappaB signaling in human MDA-MB-231 cells assessed as reduction in PMA-stimulated COX2 mRNA expression at 25 uM pre-incubated before PMA stimulation by quantitative RT-PCR method relative to untreated control; type: cell-based
MDA-MB-231 [9] = experiment: Inhibition of cell migration of PMA-stimulated human MDA-MB-231 cells; type: functional, cell-based
MDA-MB-231 [10] = experiment: Induction apoptosis in PMA-stimulated human MDA-MB-231 cells assessed as mitochondrial disruption 3.125 to 25 uM uM after 48 hrs by JC1 staining based fluorescence assay; type: functional, cell-based
[11] = target: T1, Nuclear factor NF-kappa-B complex (Homo sapiens); experiment: Inhibition of basal NF-kappaB signaling in human MDA-MB-231 cells assessed as reduction in MMP9 mRNA expression at 3.125 uM by quantitative RT-PCR method relative to untreated control; type: cell-based
[12] = target: T1, Nuclear factor NF-kappa-B complex (Homo sapiens); experiment: Inhibition of basal NF-kappaB signaling in human MDA-MB-231 cells assessed as reduction in MMP9 mRNA expression at 6.25 uM by quantitative RT-PCR method relative to untreated control; type: cell-based
[13] = target: T1, Nuclear factor NF-kappa-B complex (Homo sapiens); experiment: Inhibition of basal NF-kappaB signaling in human MDA-MB-231 cells assessed as reduction in MMP9 mRNA expression at 12.5 uM by quantitative RT-PCR method relative to untreated control; type: cell-based
[14] = target: T1, Nuclear factor NF-kappa-B complex (Homo sapiens); experiment: Inhibition of basal NF-kappaB signaling in human MDA-MB-231 cells assessed as reduction in MMP9 mRNA expression at 50 uM by quantitative RT-PCR method relative to untreated control; type: cell-based
[15] = target: T1, Nuclear factor NF-kappa-B complex (Homo sapiens); experiment: Inhibition of NF-kappaB signaling in human MDA-MB-231 cells assessed as reduction in PMA-stimulated MMP9 mRNA expression at 12.5 uM pre-incubated before PMA stimulation by quantitative RT-PCR method relative to untreated control; type: cell-based
[16] = target: T1, Nuclear factor NF-kappa-B complex (Homo sapiens); experiment: Inhibition of NF-kappaB signaling in human MDA-MB-231 cells assessed as reduction in PMA-stimulated MMP9 mRNA expression at 50 uM pre-incubated before PMA stimulation by quantitative RT-PCR method relative to untreated control; type: cell-based
[17] = target: T1, Nuclear factor NF-kappa-B complex (Homo sapiens); experiment: Inhibition of basal NF-kappaB signaling in human MDA-MB-231 cells assessed as reduction in MMP9 mRNA expression at 12.5 uM by quantitative RT-PCR method; type: cell-based
MDA-MB-231 [18] = experiment: Cytotoxicity against non-stimulated human MDA-MB-231 cells assessed as induction of cell death up to 25 uM after 48 hrs by MTT assay; type: functional
MDA-MB-231 [19] = experiment: Cytotoxicity against PMA-stimulated human MDA-MB-231 cells assessed as induction of cell death up to 25 uM after 48 hrs by MTT assay; type: functional
MDA-MB-231 [20] = experiment: Cytotoxicity against non-stimulated human MDA-MB-231 cells assessed as induction of cell death at 50 uM after 48 hrs by MTT assay; type: functional
MDA-MB-231 [21] = experiment: Cytotoxicity against PMA-stimulated human MDA-MB-231 cells assessed as induction of cell death at 50 uM after 48 hrs by MTT assay; type: functional
MDA-MB-231 [22] = experiment: Induction of cell cycle arrest in PMA-stimulated human MDA-MB-231 cells assessed as accumulation at G2/M phase at 25 uM after 48 hrs by propidium iodide staining based flow cytometry; type: functional
MDA-MB-231 [23] = experiment: Induction of cell cycle arrest in un-stimulated human MDA-MB-231 cells assessed as accumulation at G2/M phase at 25 uM after 48 hrs by propidium iodide staining based flow cytometry; type: functional
[24] = Toxicity against human MDA-MB-231 cells after 48 hrs by MTT assay; type: cell-based; details: read-out: MNCC
MDA-MB-231 [25] = experiment: Induction of cell cycle arrest in PMA-stimulated human MDA-MB-231 cells assessed as accumulation at G1 phase at 25 uM after 48 hrs by propidium iodide staining based flow cytometry (reference value: 52%); type: functional
MDA-MB-231 [26] = experiment: Induction of cell cycle arrest in PMA-stimulated human MDA-MB-231 cells assessed as accumulation at S phase at 25 uM after 48 hrs by propidium iodide staining based flow cytometry (reference value: 29%); type: functional
MDA-MB-231 [27] = experiment: Induction of cell cycle arrest in PMA-stimulated human MDA-MB-231 cells assessed as accumulation at G2/M phase at 25 uM after 48 hrs by propidium iodide staining based flow cytometry (reference value: 19%); type: functional
MDA-MB-231 [28] = experiment: Inhibition of cell invasion of PMA-stimulated human MDA-MB-231 cells; type: functional, cell-based
MDA-MB-231 [29] = experiment: Induction apoptosis in PMA-stimulated human MDA-MB-231 cells assessed as mitochondrial disruption up to 50 uM uM after 48 hrs by JC1 staining based fluorescence assay; type: functional, cell-based
[30] = target: T1, Nuclear factor NF-kappa-B complex (Homo sapiens); experiment: Inhibition of NF-kappaB signaling in human MDA-MB-231 cells assessed as reduction in PMA-stimulated MMP9 protein expression at 6.25 to 50 uM pre-incubated before PMA stimulation by SDS-PAGE gelatin zymography; type: cell-based
[31] = target: T1, Nuclear factor NF-kappa-B complex (Homo sapiens); experiment: Effect on NF-kappaB signaling in human MDA-MB-231 cells assessed as increase in MMP9 mRNA expression at 25 uM by quantitative RT-PCR method; type: cell-based
[32] = target: T1, Nuclear factor NF-kappa-B complex (Homo sapiens); experiment: Effect on NF-kappaB signaling in human MDA-MB-231 cells assessed as increase in COX2 mRNA expression at 25 uM by quantitative RT-PCR method; type: cell-based
MDA-MB-231 [33] = experiment: Induction apoptosis in PMA-stimulated human MDA-MB-231 cells assessed as mitochondrial disruption at 10 uM after 48 hrs by JC1 staining based fluorescence assay; type: functional, cell-based

Structure (SMILES): C=C1C(=O)O[C@@H]2C3O[C@]3(C)CC/C=C(\C)CC[C@@H]12 (stereo partly drawn)
- inhibition [1]: Active
- inhibition [2]: Active
- inhibition [3]: Active
- inhibition [4]: Active

Structure (SMILES): O=c1c(O)c(-c2ccc(O)c(O)c2)oc2cc(O)cc(O)c12
- inhibition [5]: Active
- inhibition [6]: Active
- inhibition [7]: Active
- inhibition [8]: Active
- inhibition (MDA-MB-231 [9]): inactive
- Activity (MDA-MB-231 [10]): Active

Structure (SMILES): COc1ccc(-c2cc(=O)c3c(O)cc(O)cc3o2)cc1O
- inhibition [5]: Active
- inhibition [6]: Active
- inhibition [7]: Active
- inhibition [8]: Active

Structure (SMILES): COc1cc(-c2cc(=O)c3c(O)cc(O)cc3o2)ccc1O [CHRYSOERIOL]
- fold change (FC) [11]: 0.708
- fold change (FC) [12]: 0.361
- fold change (FC) [13]: 0.208
- fold change (FC) [5]: 0.211
- fold change (FC) [14]: 0.204
- fold change (FC) [15]: 3.67
- fold change (FC) [6]: 2.11
- fold change (FC) [16]: 1.33
- inhibition [7]: Active
- inhibition [8]: Active
- inhibition [17]: 80%
- Activity (MDA-MB-231 [18]): <10%
- Activity (MDA-MB-231 [19]): <10%
- Activity (MDA-MB-231 [20]): 10%
- Activity (MDA-MB-231 [21]): 10%
- Activity (MDA-MB-231 [22]): Dose-dependent effect
- Activity (MDA-MB-231 [23]): Dose-dependent effect
- MNTC at 48 h [24]: 25 µM
- Activity (MDA-MB-231 [25]): 34%
- Activity (MDA-MB-231 [26]): 27%
- Activity (MDA-MB-231 [27]): 39%
- inhibition (MDA-MB-231 [9]): Dose-dependent effect
- inhibition (MDA-MB-231 [28]): Dose-dependent effect
- Activity (MDA-MB-231 [29]): inactive
- inhibition [30]: Active

Structure (SMILES): O=c1c(O)c(-c2ccc(O)c(O)c2)oc2cc(O)c(O)c(O)c12
- Activity [31]: Active
- Activity [32]: Active

Structure (SMILES): COc1ccc(-c2cc(=O)c3c(O)cc(O)cc3o2)cc1
- inhibition [5]: Active
- inhibition [6]: Active
- inhibition [7]: Active
- inhibition [8]: Active

Structure (SMILES): O=c1c(O)c(-c2ccc(O)c(O)c2)oc2c(O)c(O)cc(O)c12
- Activity [31]: Active
- Activity [32]: Active

Structure (SMILES): COc1cccc2c1C(=O)c1c(O)c3c(c(O)c1C2=O)C[C@@](O)(C(=O)CO)C[C@@H]3O[C@H]1C[C@H](N)[C@H](O)[C@H](C)O1
- Activity (MDA-MB-231 [33]): Active
